According to article PMC7180452, “Purine and Purine Isostere Derivatives of Ferrocene: An Evaluation of ADME, Antitumor and Electrochemical Properties” (Molecules, 2020):
“Also recorded” adds a separate entry of the source.

Experiments:
[1] = Square-wave and cyclic voltammetry on glassy carbon electrode; assay type: physicochemical; details: SWV, 0.5 mol/L NaClO4, pH 9, vs Ag/AgCl
Description: The electrochemical properties of 6-chloro-7-deazapurine and 6-chloropurine derivatives of ferrocene 11c, 13a and 15b on a glassy carbon electrode were studied using cyclic (CV) and square-wave voltammetry (SWV) in aqueous electrolyte solutions over a wide pH range. The pH was varied from 2 to 10 in order to determine the effect of pH on the voltammograms (net peak currents and potentials). […] The pH of the solution affects the voltammetric response of this compound, i.e., the oxidation of evaluated compounds 11c, 13a and 15b is strongly dependent on it.
The forward (if) and backward (ib) components of the net response (Δi = if − ib) are shown as well (inset in Figure 2). […] The peak P1 occurs in all supporting electrolytes (i.e., at 2 ≤ pH ≤ 10), while the peak P2 is only observed at pH ≥ 9 (see Figure 1). The potential of peak P1 is pH-independent. Comparing to the literature data, peak P1 can be ascribed to the following charge transfer reaction [Fe^II(C5H5)2] ⇌ [Fe^III(C5H5)2]^+ + e^− [44, 48].
All chemicals used in the experiments were of the best grade commercially available (Sigma-Aldrich) and were used without further purification. Stock standard solutions of compounds 11c, 13a, 15b (c = 2.0 × 10^−3 mol/L) and 6-chloropurine (c = 1.2 × 10^−2 mol/L) were prepared from dry pure substances in dimethyl sulfoxide (DMSO, p.a.), purchased from Kemika (Zagreb, Croatia). Stock standard solution of ethynyl ferrocene (c = 1.1 × 10^−2 mol/L) was prepared from dry pure substance in ethanol (Kemika). For the supporting electrolyte, analytical grade NaClO4 (Kemika) was used. Water was deionized by the Millipore Milli-Q system to the resistivity ≥ 18 MΩcm. Voltammetric measurements were carried out using the computer-controlled electrochemical system „PGSTAT 101“ (Eco-Chemie, Utrecht, The Netherlands), controlled by the electrochemical software “NOVA 1.5”. A three-electrode system (BioLogic, Claix, France) with glassy carbon electrode (GCE) of 3 mm in diameter as a working electrode, Ag/AgCl (3 mol/L NaCl) as a reference electrode and a platinum wire as a counter electrode were used. All potentials were expressed versus Ag/AgCl (3 mol/L NaCl) reference electrode. The supporting electrolyte (0.5 mol/L NaClO4), adjusted to the desired pH value, was placed in the electrochemical cell and the required aliquot of the standard analyte solution was added. The solution in the electrochemical cell was degassed with high purity nitrogen for 10 min before measurement, and the nitrogen blanket was maintained thereafter. Before each run, the glassy carbon working electrode was polished with diamond suspension in spray (grain size 6 µm) and rinsed with ethanol and deionized water. All experiments were performed at room temperature. The presented results are reported as the mean value of three independent measurements.

[2] = tested on: ductal pancreatic adenocarcinoma (CFPAC-1); test: In vitro antiproliferative activity, CFPAC-1; assay type: cell-based, human; details: CFPAC-1 cells
Procedure: (§1) Antiproliferative activity of compounds 11a−11c, 12a−12c, 13a−13c, 14a−14c, 15a−15c, 16a, 23a−23c, 24a−24c, 25a−25c, 34a−34c and 35a−35c was evaluated in vitro on four human tumor cell lines (American Type Culture Collection, Manassas, VA, USA): metastatic colorectal adenocarcinoma (SW620), ductal pancreatic adenocarcinoma (CFPAC-1), hepatocellular carcinoma (HepG2) and cervical carcinoma (HeLa) as well as normal skin fibroblasts (HFF).

[3] = tested on: cervical carcinoma (HeLa); test: In vitro antiproliferative activity, HeLa; assay type: cell-based, human; details: HeLa cells
Procedure: as §1

[4] = Metabolic stability in mouse liver microsomes; assay type: in vitro ADME; details: for t1/2: mouse liver microsomes, 1 µM; for In Vivo CLh / In Vivo CLh (% LBF): mouse; for In Vivo CLh: predicted in vivo hepatic clearance; for In Vivo CLh (% LBF): predicted, % of liver blood flow
Procedure: (§2) Metabolic stability of compounds was assessed in human and mouse liver microsomes (Corning, Tewksbury, MA, USA). Compounds, in final concentration of 1 µM, were incubated in phosphate buffer (50 mM, pH 7.4) for 60 min at 37 °C together with liver microsomes and NADPH generating system (nicotinamide adenine dinucleotide phosphate (NADP, 0.5 mM), glucose-6-phosphate (G6P, 5 mM), glucose-6-phosphate dehydrogenase (1.5 U mL^−1) and magnesium chloride (0.5 mM)). Also, compounds were incubated without the presence of NADPH cofactor, as a buffer stability control. Metabolic activity of liver microsomes was verified by including testosterone and propranolol as positive controls, as well as caffeine as a negative control. Sampling was performed at six time points (0, 10, 20, 30, 45 and 60 min), followed by reaction termination by addition of acetonitrile/methanol mixture (2:1, v/v) containing dicofenac as internal standard. Samples were analyzed as previously described for samples from permeability assay. The in vitro half-life (t1/2) was calculated from the slope of the linear regression by plotting ln % remaining of parent compound against incubation time. In vitro intrinsic clearance, CLint was calculated from half-life using following Equation (3):(3) CLint [µL min^−1 mg^−1]=ln2/t1/2×mL per incubation/mg protein per incubation where 52.5 mg protein/g liver is used as a constant.
(§3) Predicted in vivo hepatic clearance, in vivo CLh was calculated as follows:(4) in vivo CLh [mL min^−1 kg^−1]=CLint×(mg protein/g liver)×Q×(LW/BW) /Q+(CLint×(mg protein/g liver)×(LW/BW)) where: LW/BW = liver weight/body weight [g kg^−1]; 25.7 (human), 87.5 (mouse); Q = LBF = liver blood flow [mL min^−1 kg^−1]; 21/1.26 (human), 131/7.86 (mouse).
(§4) Predicted in vivo hepatic clearance can be expressed as %LBF and calculated as follows:(5) in vivo CLh [%LBF]=in vivo CLh/LBF×100

[5] = Metabolic stability in human liver microsomes; assay type: in vitro ADME; details: for t1/2: 1 µM; for In Vivo CLh / In Vivo CLh (% LBF): human; for In Vivo CLh: predicted in vivo hepatic clearance; for In Vivo CLh (% LBF): predicted, % of liver blood flow
Procedure: as §2, §3, §4

SMILES	Oxidation peak P1 potential (ferrocene) [1]	Oxidation peak P2 potential (triazole) [1]	IC50 [2] [µM]	IC50 [3] [µM]	t1/2 [4] [min]	In Vivo CLh [4] [mL/min/kg]	In Vivo CLh (% LBF) [4] [% LBF]	t1/2 ([5]; human liver microsomes) [min]	In Vivo CLh [5] [mL/min/kg]	In Vivo CLh (% LBF) [5] [% LBF]	Metabolic stability classification ([5]; human liver microsomes, in words)
Clc1ncnc2c1ccn2Cc1cn(-[c-]2cccc2)nn1.[Fe+2].c1cc[cH-]c1 [Compound 11c, 4-Chloro-7-[1-(1-ferrocenyl-1,2,3-triazol-1-yl)methyl]-7H-pyrrolo[2,3-d]pyrimidine]	~ 0.4 V	~ 1.1 V	35 ± 5.44	27.7 ± 3.23	1.3	25.6	99	4.1	24.3	95	–
Clc1ncnc2c1ncn2Cc1cn(C[c-]2cccc2)nn1.[Fe+2].c1cc[cH-]c1 [Compound 13a, 6-Chloro-9-[1-(1-ferrocenymethyl-1,2,3-triazol-4-yl)methyl]-9H-purine]	~ 0.4 V	~ 1.1 V	22.8 ± 4.31	25.2 ± 4.31	5.5	25.1	98	38.6	16.8	65	good metabolic stability; also recorded: moderately stable; also recorded: moderate stability
CC([c-]1cccc1)n1cc(Cn2cnc3ncnc(Cl)c32)nn1.[Fe+2].c1cc[cH-]c1 (stereo not shown) [Compound 15b, 6-Chloro-7-[1-(1-ferrocenyl-1-methylmethyl-1,2,3-triazol-4-yl)methyl]-7H-purine]	~ 0.4 V	~ 1.1 V	28.6 ± 2.68	28.97 ± 0.09	2.9	25.4	99	19.0	20.4	79	–
